This is an account of results in ChEMBL document CHEMBL3046366, “Inhibitory effect of curcumin analogs on tissue factor procoagulant activity and their preliminary structureactivity relationships” (Med Chem Res, 2013).

Molecules are shown by their SMILES. Where only a bound is given, the exact number is not on record here.

Target in the first assay: not listed separately
Nature of the assay: Inhibition of tissue factor in Homo sapiens (human) THP1-cells using factor 10a chromogenic substrate assessed as inhibition of LPS-iduced procoagulant activity incubated for 1 hr prior to LPS-challenge measured after 5 hr by spectrophotometric analysis. As to conditions: thp-1.
The IC50 is the concentration that inhibits the measured activity by half. Turning to `COc1cc(/C=C/C(=O)CC(=O)/C=C/c2ccc(O)c(OC)c2)ccc1O` [CURCUMIN], the 50% inhibitory concentration (IC50) is 200 nM.

The target of the next assay is T1, Tissue factor (Homo sapiens, UniProt P13726). Nature of the assay: Ratio of curcumin IC50 to compound IC50 for tissue factor in LPS-induced Homo sapiens (human) THP1 cells. It is filed as cell-based. As to conditions: THP-1.
T1 sequence (P13726 whole entry): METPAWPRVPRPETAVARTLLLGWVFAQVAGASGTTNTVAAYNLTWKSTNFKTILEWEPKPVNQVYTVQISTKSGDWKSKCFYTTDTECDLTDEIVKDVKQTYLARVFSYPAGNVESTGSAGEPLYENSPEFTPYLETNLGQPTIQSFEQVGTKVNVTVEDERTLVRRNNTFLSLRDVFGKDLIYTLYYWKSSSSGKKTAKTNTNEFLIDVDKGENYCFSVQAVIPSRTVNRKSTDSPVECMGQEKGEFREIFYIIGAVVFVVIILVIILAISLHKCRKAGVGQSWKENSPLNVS
As for `O=C(/C=C/c1ccccc1)c1ccc(O)cc1` [4'-HYDROXYCHALCONE], the Ratio IC50 amounted to 10000.
The same measure, in the same setting: as for `O=C(/C=C/c1ccccc1)/C=C/c1ccccc1`, the figure is 10000.

The next assay has as its target T1, Tissue factor. Nature of the assay: Inhibition of tissue factor in Homo sapiens (human) THP1-cells using factor 10a chromogenic substrate assessed as inhibition of LPS-iduced procoagulant activity incubated for 1 hr prior to LPS-challenge measured after 5 hr by spectrophotometric analysis. As to conditions: thp-1. In kind it is cell-based.
Regarding `O=C(/C=C/c1ccccc1)c1ccc(O)cc1` [4'-HYDROXYCHALCONE], the half-maximal inhibitory concentration (IC50) stood at 0.12 nM.
As for `O=C(/C=C/c1ccc(O)cc1)c1ccc(O)cc1` [4,4'-DIHYDROXYCHALCONE], the concentration for half-maximal inhibition (IC50) came to 0.96 nM.
The same measure, in the same setting: then `O=C(/C=C/c1ccc(O)cc1)/C=C/c1ccc(O)cc1`, with 2.58 nM.
For the molecule `O=C1/C(=C/c2ccc(O)cc2)CCC/C1=C\c1ccc(O)cc1`, the concentration for half-maximal inhibition (IC50) is 0.94 nM.
In the case of `COc1ccc(/C=C/C(=O)c2ccc(OC)cc2)cc1` [4,4'-DIMETHOXYCHALCONE], the half-maximal inhibitory concentration (IC50) is 15.4 nM.
Take `O=C(/C=C/c1ccccc1)/C=C/c1ccccc1`: the IC50 came out at 0.053 nM.
Still for that read-out and setting: as for `COc1cc(/C=C2\CCC/C(=C\c3ccc(O)c(OC)c3)C2=O)ccc1O` [CYCLOVALONE], the figure is over 200 nM; as for `COc1ccc(/C=C2\CCC/C(=C\c3ccc(OC)cc3)C2=O)cc1`, over 200 nM; as for `O=C1/C(=C/c2ccccc2)CCC/C1=C\c1ccccc1` [2,6-DIBENZYLIDENECYCLOHEXANONE], 0.26 nM.
The same measure, in the same setting: then `COc1ccc(C(=O)/C=C/c2ccc(O)cc2)cc1`, with 142 nM.
Still for that read-out and setting: as for `COc1cc(/C=C/C(=O)/C=C/c2ccc(O)c(OC)c2)ccc1O`, the figure is over 200 nM; as for `COc1ccc(/C=C/C(=O)/C=C/c2ccc(OC)cc2)cc1`, 13.4 nM.
